These are literature values, as cited in US4436732A, “Medicated compound for treating diseases infected by virus of the herpes group” (priority 1981, dated 1984).

The conditions of this data set: known preparations, background; cited from earlier work.

For the compound `O=c1[nH]cc(F)c(=O)[nH]1` [5-fluorouracyl], the toxicity entry is recorded as “rather toxic”.
